Test results published in patent US20100099561A1, “HETEROBICYCLIC ALKYLTHIO-BRIDGED ISOXAZOLINES” (E.I. DU PONT DE NEMOURS AND COMPANY, priority 2008, published 2010).

Columns and labels:
Format in all cases: in vivo
[1] = test system: barnyardgrass (Echinochloa crus-galli); assay: Test A preemergence, barnyardgrass; settings: 0 to 100 scale (0 no effect, 100 complete control)
How it was run: (§1)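 Species planted together in a loam soil and sand blend received compound either as a preemergence soil spray or as a postemergence treatment when 2–10 cm tall with one to two leaves. About ten days later, injury was visually rated relative to untreated plants on a 0–100 scale.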

[2] = test system: large crabgrass (Digitaria sanguinalis); assay: Test A preemergence, large crabgrass; settings: 0 to 100 scale (0 no effect, 100 complete control)
How it was run: as §1

[3] = test system: giant foxtail (Setaria faberi); assay: Test A preemergence, giant foxtail; settings: 0 to 100 scale (0 no effect, 100 complete control)
How it was run: as §1

[4] = test system: morningglory (Ipomoea spp.); assay: Test A preemergence, morningglory; settings: 0 to 100 scale (0 no effect, 100 complete control)
How it was run: as §1

[5] = test system: pigweed (Amaranthus retroflexus); assay: Test A preemergence, pigweed; settings: 0 to 100 scale (0 no effect, 100 complete control)
How it was run: as §1

[6] = test system: velvetleaf (Abutilon theophrasti); assay: Test A preemergence, velvetleaf; settings: 0 to 100 scale (0 no effect, 100 complete control)
How it was run: as §1

[7] = test system: wheat (Triticum aestivum); assay: Test A preemergence, wheat; settings: 0 to 100 scale (0 no effect, 100 complete control)
How it was run: as §1

corn (Zea mays) [8] = assay: Test A preemergence, corn; settings: 0 to 100 scale (0 no effect, 100 complete control)
How it was run: as §1

[9] = test system: barnyardgrass (Echinochloa crus-galli); assay: Test A postemergence, barnyardgrass; settings: 0 to 100 scale (0 no effect, 100 complete control)
How it was run: as §1

[10] = test system: large crabgrass (Digitaria sanguinalis); assay: Test A postemergence, large crabgrass; settings: 0 to 100 scale (0 no effect, 100 complete control)
How it was run: as §1

[11] = test system: giant foxtail (Setaria faberi); assay: Test A postemergence, giant foxtail; settings: 0 to 100 scale (0 no effect, 100 complete control)
How it was run: as §1

[12] = test system: morningglory (Ipomoea spp.); assay: Test A postemergence, morningglory; settings: 0 to 100 scale (0 no effect, 100 complete control)
How it was run: as §1

[13] = test system: pigweed (Amaranthus retroflexus); assay: Test A postemergence, pigweed; settings: 0 to 100 scale (0 no effect, 100 complete control)
How it was run: as §1

[14] = test system: velvetleaf (Abutilon theophrasti); assay: Test A postemergence, velvetleaf; settings: 0 to 100 scale (0 no effect, 100 complete control)
How it was run: as §1

[15] = test system: wheat (Triticum aestivum); assay: Test A postemergence, wheat; settings: 0 to 100 scale (0 no effect, 100 complete control)
How it was run: as §1

corn (Zea mays) [16] = assay: Test A postemergence, corn; settings: 0 to 100 scale (0 no effect, 100 complete control)
How it was run: as §1

rice (Oryza sativa) = assay: Test B flooded paddy test, rice; settings: Flood, scale 0 to 100
How it was run: (§2)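 Step one: raise plants to 2 leaves. Step two: flood pots 3 cm over the soil and apply compound into the water, keeping this depth. Step three: after 13–15 greenhouse days, score visually versus controls, 0–100, where 100 means complete control.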

[17] = test system: umbrella sedge (Cyperus difformis); assay: Test B flooded paddy test, umbrella sedge; settings: Flood, scale 0 to 100
How it was run: as §2

[18] = test system: ducksalad (Heteranthera limosa); assay: Test B flooded paddy test, ducksalad; settings: Flood, scale 0 to 100
How it was run: as §2

[19] = test system: barnyardgrass (Echinochloa crus-galli); assay: Test B flooded paddy test, barnyardgrass; settings: Flood
How it was run: as §2

[20] = 250 g ai/ha, scale 0 to 100 (0 no effect, 100 complete control)

CCn1c(=O)c(C[S+]([O-])C2=NOC(C)(C)C2)nc2cccnc21 (stereo not shown) [Compound 38]
10: Plant response rating, Morningglory ([12]; 500 g ai/ha) | Plant response rating, Wheat ([15]; 500 g ai/ha)
20: Plant response rating, Barnyardgrass ([9]; 125 g ai/ha) | Plant response rating, Crabgrass, Large ([10]; 500 g ai/ha)
0: Plant response rating, Barnyardgrass ([1]; 125 g ai/ha) | Plant response rating, Barnyardgrass ([1]; 500 g ai/ha) | Plant response rating, Crabgrass, Large ([2]; 125 g ai/ha) | Plant response rating, Crabgrass, Large ([2]; 500 g ai/ha) | Plant response rating, Foxtail, Giant ([3]; 125 g ai/ha) | Plant response rating, Foxtail, Giant ([3]; 500 g ai/ha) | Plant response rating, Morningglory ([4]; 125 g ai/ha) | Plant response rating, Morningglory ([4]; 500 g ai/ha) | Plant response rating, Pigweed ([5]; 125 g ai/ha) | Plant response rating, Pigweed ([5]; 500 g ai/ha) | Plant response rating, Velvetleaf ([6]; 125 g ai/ha) | Plant response rating, Velvetleaf ([6]; 500 g ai/ha) | Plant response rating, Wheat ([7]; 125 g ai/ha) | Plant response rating, Wheat ([7]; 500 g ai/ha) | Plant response rating, Corn (corn (Zea mays) [8]; 125 g ai/ha) | Plant response rating, Corn (corn (Zea mays) [8]; 500 g ai/ha) | Plant response rating, Crabgrass, Large ([10]; 125 g ai/ha) | Plant response rating, Foxtail, Giant ([11]; 125 g ai/ha) | Plant response rating, Foxtail, Giant ([11]; 500 g ai/ha) | Plant response rating, Morningglory ([12]; 125 g ai/ha) | Plant response rating, Pigweed ([13]; 125 g ai/ha) | Plant response rating, Pigweed ([13]; 500 g ai/ha) | Plant response rating, Velvetleaf ([14]; 125 g ai/ha) | Plant response rating, Wheat ([15]; 125 g ai/ha) | Plant response rating, Corn (corn (Zea mays) [16]; 125 g ai/ha) | Plant response rating, Corn (corn (Zea mays) [16]; 500 g ai/ha) | Plant response rating, Rice (rice (Oryza sativa); 31 g ai/ha) | Plant response rating, Rice (rice (Oryza sativa); 62 g ai/ha) | Plant response rating, Rice (rice (Oryza sativa); 125 g ai/ha) | Plant response rating, Rice (rice (Oryza sativa); 250 g ai/ha) | Plant response rating, Sedge, Umbrella ([17]; 31 g ai/ha) | Plant response rating, Sedge, Umbrella ([17]; 62 g ai/ha) | Plant response rating, Sedge, Umbrella ([17]; 125 g ai/ha) | Plant response rating, Sedge, Umbrella ([17]; 250 g ai/ha) | Plant response rating, Ducksalad ([18]; 31 g ai/ha) | Plant response rating, Ducksalad ([18]; 62 g ai/ha) | Plant response rating, Ducksalad ([18]; 125 g ai/ha) | Plant response rating, Ducksalad ([18]; 250 g ai/ha) | Plant response rating, Barnyardgrass ([19]; 31 g ai/ha, scale 0 to 100) | Plant response rating, Barnyardgrass ([19]; 62 g ai/ha, scale 0 to 100) | Plant response rating, Barnyardgrass ([19]; 125 g ai/ha, scale 0 to 100) | Plant response rating, Barnyardgrass [19, 20]
30: Plant response rating, Barnyardgrass ([9]; 500 g ai/ha) | Plant response rating, Velvetleaf ([14]; 500 g ai/ha)

Cc1con2c(=O)c(C[S+]([O-])C3=NOC(C)(C)C3)c(C(F)(F)F)nc12 (stereo not shown) [Compound 47]
30: Plant response rating, Foxtail, Giant ([3]; 500 g ai/ha)
60: Plant response rating, Crabgrass, Large ([10]; 500 g ai/ha) | Plant response rating, Foxtail, Giant ([11]; 500 g ai/ha)
50: Plant response rating, Barnyardgrass ([9]; 500 g ai/ha)
70: Plant response rating, Barnyardgrass ([1]; 500 g ai/ha)
0: Plant response rating, Barnyardgrass ([1]; 125 g ai/ha) | Plant response rating, Crabgrass, Large ([2]; 125 g ai/ha) | Plant response rating, Foxtail, Giant ([3]; 125 g ai/ha) | Plant response rating, Morningglory ([4]; 125 g ai/ha) | Plant response rating, Morningglory ([4]; 500 g ai/ha) | Plant response rating, Pigweed ([5]; 125 g ai/ha) | Plant response rating, Pigweed ([5]; 500 g ai/ha) | Plant response rating, Velvetleaf ([6]; 125 g ai/ha) | Plant response rating, Velvetleaf ([6]; 500 g ai/ha) | Plant response rating, Wheat ([7]; 125 g ai/ha) | Plant response rating, Wheat ([7]; 500 g ai/ha) | Plant response rating, Corn (corn (Zea mays) [8]; 125 g ai/ha) | Plant response rating, Corn (corn (Zea mays) [8]; 500 g ai/ha) | Plant response rating, Barnyardgrass ([9]; 125 g ai/ha) | Plant response rating, Crabgrass, Large ([10]; 125 g ai/ha) | Plant response rating, Foxtail, Giant ([11]; 125 g ai/ha) | Plant response rating, Morningglory ([12]; 125 g ai/ha) | Plant response rating, Pigweed ([13]; 125 g ai/ha) | Plant response rating, Pigweed ([13]; 500 g ai/ha) | Plant response rating, Velvetleaf ([14]; 125 g ai/ha) | Plant response rating, Velvetleaf ([14]; 500 g ai/ha) | Plant response rating, Wheat ([15]; 125 g ai/ha) | Plant response rating, Wheat ([15]; 500 g ai/ha) | Plant response rating, Corn (corn (Zea mays) [16]; 125 g ai/ha) | Plant response rating, Rice (rice (Oryza sativa); 62 g ai/ha) | Plant response rating, Rice (rice (Oryza sativa); 250 g ai/ha) | Plant response rating, Sedge, Umbrella ([17]; 62 g ai/ha) | Plant response rating, Sedge, Umbrella ([17]; 250 g ai/ha) | Plant response rating, Ducksalad ([18]; 62 g ai/ha) | Plant response rating, Ducksalad ([18]; 250 g ai/ha) | Plant response rating, Barnyardgrass ([19]; 62 g ai/ha, scale 0 to 100) | Plant response rating, Barnyardgrass [19, 20]
20: Plant response rating, Crabgrass, Large ([2]; 500 g ai/ha) | Plant response rating, Morningglory ([12]; 500 g ai/ha) | Plant response rating, Corn (corn (Zea mays) [16]; 500 g ai/ha)
